# Read-outs that look alike come from different tables or passages of the source.
# What was measured:
# CYP2C8 = CYP2C8 (Homo sapiens, UniProt P10632); test: CYP inhibition; assay type: in vitro ADME; conditions: read-out: half-maximal inhibitory concentration (IC50)
# Procedure: (§1) Exposure to NRL-2017 was similar or greater (up to 5-fold) than that to NRL-1049 in rats when dosed once a day (QD). In monkeys, exposure to NRL-2017 was also greater (up to 33-fold) than that to NRL-1049. When rats were dosed twice a day (BID) for 14 days, there was a decrease in formation of NRL-2017 with exposure to NRL-2017 lower than that of NRL-1049 (ratio as low as 0.06). […] NRL-1049 bound to human serum albumin and human alpha1-acid glycoprotein. […] There was also inhibition of P-glycoprotein (P-gp) (only CACO-2 cells), organic anion transporting polypeptides (OATP) OATP1B1, OATP1B3 and OAT3 (IC50, >100 μM), but no effect on P-gp (MDCK2 cells), breast cancer resistance protein (BCRP), bile salt export pump (BSEP), or MATE2-K. NRL-1049 is a substrate for P-gp, not BCRP. […] This conclusion will be revisited when human pharmacokinetic (PK) data becomes available.
# CYP3A4/5 = test: CYP inhibition; assay type: in vitro ADME; conditions: human
# Procedure: as §1
# [1] = first-in-human single ascending dose and food-effect study, plasma pharmacokinetics; assay type: in vivo; conditions: for Vd/F: read-out: Vz/F
# Source text: This was a first-in-human, single center, randomized, double-blind, placebo-controlled, single ascending dose (SAD) study, including a food-effect assessment, in healthy male and female subjects. Up to 44 subjects were included in the study.
# The study consisted of 4 sequential cohorts of 8 subjects each (6 active and 2 placebo), randomly assigned to receive a single oral dose of NRL-1049 or matching-placebo under fasting state on Day 1 (See Table 2). In each cohort, a sentinel group of 2 subjects (1 active and 1 placebo) were dosed at least 24 hours prior to enrolling the remaining subjects of the cohort, contingent on the safety profile observed during sentinel dosing, as defined by medical judgment.
# Subjects were admitted to the clinical research unit (CRU) on Day −1. On Day 1, following an overnight fast, subjects received a single oral dose of their assigned study treatment. Safety, PK, and exploratory biomarker assessments were performed prior to dosing and at assigned time points during study confinement. Subjects were permitted to leave the CRU following the completion of the 48-hour PK postdose sampling and safety assessments. A safety follow-up phone call was performed on Day 8 (±1 day).
# Furthermore, a food-effect assessment was integrated into Cohort 3, in which a single oral 150 mg dose of NRL-1049 or placebo was administered to 12 subjects (10 active and 2 placebo) under fed state in Period 2 (refer to schedule of food-effect Cohort 3 in Table 3). After completion of Period 1 and a washout period of at least 14 days, Cohort 3 subjects repeated the screening procedures to ensure they still met the inclusion and exclusion criteria prior to readmission to the CRU for Period 2. Subjects dosed in Period 1 and who returned for Period 2 (a maximum of 6 active and 2 placebo) were administered the same single oral dose in Period 2 under fed state. In addition, at least 4 new subjects were enrolled in Period 2 only, in order to dose a total of 12 subjects (10 active and 2 placebo), in a 1:1 ratio of male to female. If a subject dosed in Period 1 was unable to return for Period 2, a new subject was enrolled to ensure dosing a total of 12 subjects in Period 2. Newly enrolled subjects only received the study drug in the fed state, and as such were not required to undergo Period 1 activities. There was no sentinel approach in Period 2.
# Study drugs (NRL-1049 or placebo) were administered in the morning. The date and time of each dose was recorded. For each subject, all scheduled postdose activities and assessments were performed relative to the time of study drug administration. An oral dose of the assigned formulation was administered to subjects with approximately 240 mL of water at ambient temperature. The capsule(s) were swallowed whole and not chewed or broken. Food and fluid intake other than water were controlled for each confinement period and all subjects. In Cohorts 1, 2, 3 (Period 1), and 4, water was permitted as needed except from 1 hour predose until 1 hour after dosing. In Period 2 of Cohort 3, water was permitted as needed throughout the confinement period. For cohorts under fasting state, subjects were required to fast (abstain from food) for at least 10 hours prior to dosing and for at least 4 hours following dosing. In Period 2 of the food-effect cohort only, following an overnight fast of at least 10 hours, subjects received a standardized high-fat, high-calorie meal 30 minutes prior to study drug administration. An example meal would consist of 2 eggs fried in butter, 2 strips of bacon, 2 slices of toast with butter, 4 ounces of hash brown potatoes, and 8 ounces of whole milk. […] Subjects had to eat the total content of this meal in 30 minutes or less. For all cohorts, a standardized lunch was served at least 4 hours after dosing. A supper, light snack, and other meals were served at appropriate times thereafter, but not until after 9 hours postdose. […]
# [2] = 150 mg NRL-1049, fed compared to fasting state
# [3] = 25 to 250 mg NRL-1049, fasting conditions
# [4] = plasma NRL-1049, mean, 25 mg NRL-1049 single oral, fasting, Cohort 1, N = 6
# [5] = plasma NRL-1049, mean, 75 mg NRL-1049 single oral, fasting, Cohort 2, N = 6
# [6] = plasma NRL-1049, mean, 150 mg NRL-1049 single oral, Fed, Cohort 3, N = 10
# [7] = plasma NRL-1049, mean, 250 mg NRL-1049 single oral, fasting, Cohort 4, N = 6
# CYP2C8, sequence (P10632 whole entry): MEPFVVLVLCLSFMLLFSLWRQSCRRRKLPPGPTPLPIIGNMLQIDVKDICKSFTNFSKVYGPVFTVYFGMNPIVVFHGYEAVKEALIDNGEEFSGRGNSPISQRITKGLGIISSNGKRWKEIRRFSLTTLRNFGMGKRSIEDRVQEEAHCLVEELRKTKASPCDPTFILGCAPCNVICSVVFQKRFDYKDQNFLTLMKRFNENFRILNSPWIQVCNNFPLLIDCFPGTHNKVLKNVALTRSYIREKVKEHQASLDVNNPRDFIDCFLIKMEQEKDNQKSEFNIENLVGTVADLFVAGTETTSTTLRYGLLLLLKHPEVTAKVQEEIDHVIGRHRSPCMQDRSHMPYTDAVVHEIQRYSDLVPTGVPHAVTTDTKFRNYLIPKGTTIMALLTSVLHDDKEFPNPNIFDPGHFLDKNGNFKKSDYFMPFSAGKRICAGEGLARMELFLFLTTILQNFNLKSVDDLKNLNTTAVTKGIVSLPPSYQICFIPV
compound,measurement,setting,value
C[C@@H](N)C1CCN(S(=O)(=O)c2cccc3cnccc23)CC1 [NRL-1049],IC50,CYP2C8,160 µM
same,IC50,"CYP3A4/5; first of the two values printed 23/110, read-out: half-maximal inhibitory concentration (IC50)",23 µM
same,IC50,"CYP3A4/5; second of the two values printed 23/110, read-out: half-maximal inhibitory concentration (IC50)",110 µM
same,food effect on mean AUC0-T and AUCinf,[1]; [2],greater in the fed state
same,food effect on mean Cmax,[1]; [2],decreased
same,food effect on mean apparent clearance,[1]; [2],greater in the fasting state
same,food effect on mean apparent volume of distribution,[1]; [2],greater in the fed state
same,food effect on mean elimination half-life,[1]; [2],slightly increased
same,time up to which mean concentrations were quantifiable,"[1]; 25-mg dose, fasting state",up to 2 hours
same,manner of increase of AUC0-T with dose,[1]; [3],greater than dose proportional
same,manner of increase of AUC0-Tmax with dose,[1]; [3],dose proportional
same,manner of increase of AUCinf with dose,[1]; [3],greater than dose proportional
same,manner of increase of Cmax with dose,[1]; [3],dose proportional
same,time up to which mean concentrations were quantifiable,"[1]; 75-mg dose, fasting state",≤ 4 h
same,time up to which mean concentrations were quantifiable,"[1]; 150- and 250-mg doses, fasting state",≤ 8 h
same,time up to which mean concentrations were quantifiable,"[1]; 150-mg dose, fed state",up to 12 hours
same,AUC(0-t),"[1]; both sexes, human, plasma, oral, range over dose range 25 to 250 mg NRL-1049, fasting state, read-out: mean AUC0-T",3.03 to 76.5 ng·h/mL
same,AUC,"[1]; both sexes, human, plasma, oral, range over dose range 25 to 250 mg NRL-1049, fasting state, read-out: mean AUC0-Tmax",1.26 to 8.73 ng·h/mL
same,AUC(0-inf),"[1]; both sexes, human, plasma, oral, range over dose range 25 to 250 mg NRL-1049, fasting state, read-out: mean AUCinf",3.81 to 78.2 ng·h/mL
same,Cmax,"[1]; both sexes, human, plasma, oral, range over dose range 25 to 250 mg NRL-1049, fasting state, read-out: mean Cmax",3.66 to 58 ng/mL
same,half-life,"[1]; both sexes, human, plasma, oral, range over the dose groups 25 to 250 mg NRL-1049, fasting state, read-out: mean elimination half-life",31.2 to 75.6 min
same,AUC(0-t),"[1]; both sexes, human, plasma, po, 25 mg, plasma NRL-1049, mean, 25 mg NRL-1049 single oral, fasting, Cohort 1, N = 6, read-out: AUC0-T",3.03 ng·h/mL
same,AUC,"[1]; both sexes, human, plasma, po, 25 mg, plasma NRL-1049, mean, 25 mg NRL-1049 single oral, fasting, Cohort 1, N = 6, read-out: AUC0-Tmax",1.26 ng·h/mL
same,AUC(0-inf),"[1]; both sexes, human, plasma, po, 25 mg, plasma NRL-1049, mean, 25 mg NRL-1049 single oral, fasting, Cohort 1, N = 6, read-out: AUCinf",3.81 ng·h/mL
same,Cmax,"[1]; both sexes, human, plasma, po, 25 mg, plasma NRL-1049, mean, 25 mg NRL-1049 single oral, fasting, Cohort 1, N = 6, read-out: Cmax",3.66 ng/mL
same,Vd/F,"[1]; both sexes, human, plasma, po, 25 mg, plasma NRL-1049, mean, 25 mg NRL-1049 single oral, fasting, Cohort 1, N = 6",5500 L
same,Tmax,"[1]; both sexes, human, plasma, po, 25 mg, plasma NRL-1049, median, 25 mg NRL-1049 single oral, fasting, Cohort 1, N = 6, read-out: Tmax",45 min
same,AUC(0-t),"[1]; both sexes, human, plasma, po, 75 mg, plasma NRL-1049, mean, 75 mg NRL-1049 single oral, fasting, Cohort 2, N = 6, read-out: AUC0-T",13.8 ng·h/mL
same,AUC,"[1]; both sexes, human, plasma, po, 75 mg, plasma NRL-1049, mean, 75 mg NRL-1049 single oral, fasting, Cohort 2, N = 6, read-out: AUC0-Tmax",2.88 ng·h/mL
same,AUC(0-inf),"[1]; both sexes, human, plasma, po, 75 mg, plasma NRL-1049, mean, 75 mg NRL-1049 single oral, fasting, Cohort 2, N = 6, read-out: AUCinf",15.2 ng·h/mL
same,Cmax,"[1]; both sexes, human, plasma, po, 75 mg, plasma NRL-1049, mean, 75 mg NRL-1049 single oral, fasting, Cohort 2, N = 6, read-out: Cmax",16.9 ng/mL
same,Vd/F,"[1]; both sexes, human, plasma, po, 75 mg, plasma NRL-1049, mean, 75 mg NRL-1049 single oral, fasting, Cohort 2, N = 6",6020 L
same,Tmax,"[1]; both sexes, human, plasma, po, 75 mg, plasma NRL-1049, median, 75 mg NRL-1049 single oral, fasting, Cohort 2, N = 6, read-out: Tmax",30 min
same,AUC(0-t),"[1]; both sexes, human, plasma, po, 150 mg, plasma NRL-1049, mean, 150 mg NRL-1049 single oral, Fasted, Cohort 3, N = 6, read-out: AUC0-T",34.8 ng·h/mL
same,AUC,"[1]; both sexes, human, plasma, po, 150 mg, plasma NRL-1049, mean, 150 mg NRL-1049 single oral, Fasted, Cohort 3, N = 6, read-out: AUC0-Tmax",6.16 ng·h/mL
same,AUC(0-inf),"[1]; both sexes, human, plasma, po, 150 mg, plasma NRL-1049, mean, 150 mg NRL-1049 single oral, Fasted, Cohort 3, N = 6, read-out: AUCinf",36.2 ng·h/mL
same,Cmax,"[1]; both sexes, human, plasma, po, 150 mg, plasma NRL-1049, mean, 150 mg NRL-1049 single oral, Fasted, Cohort 3, N = 6, read-out: Cmax",34.9 ng/mL
same,Vd/F,"[1]; both sexes, human, plasma, po, 150 mg, plasma NRL-1049, mean, 150 mg NRL-1049 single oral, Fasted, Cohort 3, N = 6",10800 L
same,AUC(0-t),"[1]; both sexes, human, plasma, po, 150 mg, plasma NRL-1049, mean, 150 mg NRL-1049 single oral, Fed, Cohort 3, N = 10, read-out: AUC0-T",42 ng·h/mL
same,AUC,"[1]; both sexes, human, plasma, po, 150 mg, plasma NRL-1049, mean, 150 mg NRL-1049 single oral, Fed, Cohort 3, N = 10, read-out: AUC0-Tmax",6.14 ng·h/mL
same,AUC(0-inf),"[1]; both sexes, human, plasma, po, 150 mg, plasma NRL-1049, mean, 150 mg NRL-1049 single oral, Fed, Cohort 3, N = 10, read-out: AUCinf",44.7 ng·h/mL
same,Cmax,"[1]; both sexes, human, plasma, po, 150 mg, plasma NRL-1049, mean, 150 mg NRL-1049 single oral, Fed, Cohort 3, N = 10, read-out: Cmax",18.5 ng/mL
same,Vd/F,"[1]; both sexes, human, plasma, po, 150 mg, plasma NRL-1049, mean, 150 mg NRL-1049 single oral, Fed, Cohort 3, N = 10",10800 L
same,Tmax,"[1]; both sexes, human, plasma, po, 150 mg, plasma NRL-1049, median, 150 mg NRL-1049 single oral, Fasted, Cohort 3, N = 6, read-out: Tmax",30 min
same,Tmax,"[1]; both sexes, human, plasma, po, 150 mg, plasma NRL-1049, median, 150 mg NRL-1049 single oral, Fed, Cohort 3, N = 10, read-out: Tmax",52.8 min
same,AUC(0-t),"[1]; both sexes, human, plasma, po, 250 mg, plasma NRL-1049, mean, 250 mg NRL-1049 single oral, fasting, Cohort 4, N = 6, read-out: AUC0-T",76.5 ng·h/mL
same,AUC,"[1]; both sexes, human, plasma, po, 250 mg, plasma NRL-1049, mean, 250 mg NRL-1049 single oral, fasting, Cohort 4, N = 6, read-out: AUC0-Tmax",8.73 ng·h/mL
same,AUC(0-inf),"[1]; both sexes, human, plasma, po, 250 mg, plasma NRL-1049, mean, 250 mg NRL-1049 single oral, fasting, Cohort 4, N = 6, read-out: AUCinf",78.2 ng·h/mL
same,Cmax,"[1]; both sexes, human, plasma, po, 250 mg, plasma NRL-1049, mean, 250 mg NRL-1049 single oral, fasting, Cohort 4, N = 6, read-out: Cmax",58 ng/mL
same,Vd/F,"[1]; both sexes, human, plasma, po, 250 mg, plasma NRL-1049, mean, 250 mg NRL-1049 single oral, fasting, Cohort 4, N = 6",4940 L
same,Tmax,"[1]; both sexes, human, plasma, po, 250 mg, plasma NRL-1049, median, 250 mg NRL-1049 single oral, fasting, Cohort 4, N = 6, read-out: Tmax",30 min
same,Tmax,"[1]; both sexes, human, plasma, po, range over single oral doses of 25 to 250 mg NRL-1049, fasting state, read-out: median time to maximum observed plasma concentration (Tmax)",30 to 45 min
same,CL/F,[1]; [4],7420 L/h
same,Thalf,[1]; [4],0.52 h
same,CL/F,[1]; [5],5350 L/h
same,Thalf,[1]; [5],0.81 h
same,CL/F,"[1]; plasma NRL-1049, mean, 150 mg NRL-1049 single oral, Fasted, Cohort 3, N = 6",4820 L/h
same,CL/F,[1]; [6],3700 L/h
same,Thalf,[1]; [6],2.05 h
same,CL/F,[1]; [7],3370 L/h
same,Thalf,[1]; [7],1.03 h

# From patent US20250281479A1, “TREATMENT OF CAVERNOUS ANGIOMAS WITH A 4-SUBSTITUTED PIPERIDINE DERIVATIVE” (Neurelis, Inc., priority 2024, published 2025)
